Test results from patent US12673019B2, “Skin care composition” (Conopco, Inc., priority 2021, dated 2026).

Test system: interleukin (IL)-6
Assay: Human immune cell line THP-1 in vitro assay: IL-6 in supernatant of LPS-treated differentiated THP1-XBlue cells (ELISA)
Assay type: cell-based
Conditions: differentiated THP1-XBlue cells co-treated with E. coli LPS and composition, 24 hours; percentage to LPS-treated cells = 100%; three repeats
Procedure: Human Immune Cell Line THP-1 In Vitro Assay The following procedure was used to determine the anti-inflammation efficacy: THP1-XBlue™ (Cat No. thpx-sp, InvivoGen, San Diego, CA) cells were cultured as suspension in RPMI 1640 medium supplemented with 10% fetal bovine serum (FBS), penicillin (10 U/mL)-streptomycin (10 μg/mL) (Cat No. 15140122, Invitrogen, Carlsbad, CA). Cells were differentiated in 24-well plates at the density of 5×10^5 cells/well with 100 nM phorbol-12-myristate-13-acetate for 72 hours. Cells were then co-treated with pure E. coli lipopolysaccharides (LPS, Cat No. L2630, Sigma-Aldrich) and various compositions in Table 1. […] Expression of IL-6 was calculated as the percentage to LPS-treated cells which was designated as 100%. P value was analysed by Student's t-test comparing combination groups and individual compound groups (expression of IL-6, three repeats for each group).

Compound: CCCCCCC(O)CCCCCCCCCCC(=O)O (stereo not shown) [B, 12-hydroxystearic acid]
- Expression of IL-6 (%): 84.4%
